Measurements taken from publication PMC5054527, “Mechanism of high affinity inhibition of the human urate transporter URAT1” (Scientific Reports, 2016).

Key:
Experiment in all cases: URAT1 uric acid transport activity assay
Format in all cases: cell-based
[1] = molecular target: T1, h-T21A hURAT1 point mutant (Homo sapiens, UniProt Q96S37, T21A); details: HEPES pH 7.3, 100 μM 14C-uric acid
T1 construct: expressed in transfected cells; host or cells: HEK-293T

[2] = molecular target: T2, h-V18L hURAT1 point mutant (Homo sapiens, UniProt Q96S37, V18L); details: HEPES pH 7.3, 100 μM 14C-uric acid
T2 construct: expressed in transfected cells; host or cells: HEK-293T

[3] = molecular target: T3, h-C32T hURAT1 point mutant (Homo sapiens, UniProt Q96S37, C32T); details: HEPES pH 7.3, 100 μM 14C-uric acid
T3 construct: expressed in transfected cells; host or cells: HEK-293T

[4] = molecular target: T4, h-M22V hURAT1 point mutant (Homo sapiens, UniProt Q96S37, M22V); details: HEPES pH 7.3, 100 μM 14C-uric acid
T4 construct: expressed in transfected cells; host or cells: HEK-293T

[5] = molecular target: T5, h-V26T hURAT1 point mutant (Homo sapiens, UniProt Q96S37, V26T); details: HEPES pH 7.3, 100 μM 14C-uric acid
T5 construct: expressed in transfected cells; host or cells: HEK-293T

[6] = molecular target: T6, h-I481M hURAT1 point mutant (Homo sapiens, UniProt Q96S37, I481M)
T6 construct: expressed in transfected cells; host or cells: HEK-293T

[7] = molecular target: T7, hURAT1-S35N/F365Y double point mutant (Homo sapiens, UniProt Q96S37, F365Y/S35N)
T7 construct: hURAT1 and rURAT1 are 553 amino acid proteins with 12 transmembrane segments; expressed in transfected cells; host or cells: HEK-293T
T7 sequence (Q96S37 whole entry S35N/F365Y): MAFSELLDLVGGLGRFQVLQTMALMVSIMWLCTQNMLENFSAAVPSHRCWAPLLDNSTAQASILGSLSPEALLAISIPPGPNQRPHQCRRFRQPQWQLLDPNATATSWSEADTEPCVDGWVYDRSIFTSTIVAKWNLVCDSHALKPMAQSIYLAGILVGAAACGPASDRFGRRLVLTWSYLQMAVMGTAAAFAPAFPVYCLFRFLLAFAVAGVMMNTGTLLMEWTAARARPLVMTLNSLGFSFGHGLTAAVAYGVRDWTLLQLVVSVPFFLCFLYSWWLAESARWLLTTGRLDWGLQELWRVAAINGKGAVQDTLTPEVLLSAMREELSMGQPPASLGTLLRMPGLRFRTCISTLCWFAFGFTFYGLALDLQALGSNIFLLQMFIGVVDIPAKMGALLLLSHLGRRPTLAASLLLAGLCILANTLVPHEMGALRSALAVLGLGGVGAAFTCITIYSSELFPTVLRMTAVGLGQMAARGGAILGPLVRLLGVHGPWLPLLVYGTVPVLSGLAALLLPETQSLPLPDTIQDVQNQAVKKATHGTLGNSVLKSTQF

T6 sequence (Q96S37 whole entry I481M): as the sequence (Q96S37 whole entry S35N/F365Y) above, with N35S, Y365F, I481M counted along it
T4 sequence (Q96S37 whole entry M22V): as the sequence (Q96S37 whole entry S35N/F365Y) above, with M22V, N35S, Y365F counted along it
T2 sequence (Q96S37 whole entry V18L): as the sequence (Q96S37 whole entry S35N/F365Y) above, with V18L, N35S, Y365F counted along it
T5 sequence (Q96S37 whole entry V26T): as the sequence (Q96S37 whole entry S35N/F365Y) above, with V26T, N35S, Y365F counted along it
T1 sequence (Q96S37 whole entry T21A): as the sequence (Q96S37 whole entry S35N/F365Y) above, with T21A, N35S, Y365F counted along it
T3 sequence (Q96S37 whole entry C32T): as the sequence (Q96S37 whole entry S35N/F365Y) above, with C32T, N35S, Y365F counted along it

O=C1C(CC[S+]([O-])c2ccccc2)C(=O)N(c2ccccc2)N1c1ccccc1 (stereo not drawn) [sulfinpyrazone]
IC50 [1]: 12 ± 2.3 µM
IC50 [2]: 19 ± 4.7 µM
IC50 [3]: 29 ± 3.2 µM
IC50 [4]: 28 ± 3.1 µM
IC50 [5]: 21 ± 4.7 µM
fold reduced affinity of h-I481M compared to hURAT1 ([6]; from IC50 values): 4 fold
IC50 ([6]; h-I481M, HEPES pH 7.3, 100 μM 14C-uric acid): 118 ± 8.1 µM

O=c1[nH]c(=O)c2[nH]c(=O)[nH]c2[nH]1 [uric acid]
fold decrease in affinity of h-S35N/F365Y relative to hURAT1 ([7]; from IC50 values): 3.9 fold
IC50 ([7]; hURAT1-S35N/F365Y, MES pH 5.5, 100 μM 14C-uric acid): 960 µM
